The record followed here is publication PMC5418711, “Safety and efficacy of the choline analogue SAR97276 for malaria treatment: results of two phase 2, open-label, multicenter trials in African patients” (Malaria Journal, 2017).

The nature of this data set: Population pharmacokinetics in plasma, Study 1 and Study 2. It counts as in vivo, human. Particulars: for AUC(0-t) / Cmax / Vd / clearance: human, plasma; for AUC(0-t) / Cmax: mean and SD; for AUC(0-t): read-out: AUC or AUC0-24,ss; for Cmax: read-out: Cmax or Cmax,ss; for Vd: read-out: Median central volume of distribution V2; for clearance: read-out: Median clearance (converted). Here is the method:
Rescue therapy was initiated in case of clinical aggravation of recrudescent parasites in both studies, the exact description for each study can be seen in the supplement (Additional file 3). Pharmacokinetic analysis: Plasma samples were assayed using a validated liquid chromatography-mass spectrometry method with a limit of quantification of 1 ng/ml for SAR97276. The pharmacokinetic analysis was performed using a population pharmacokinetic modeling approach.
The pharmacokinetics of SAR97276 were best described by a three-compartment model, with a first order absorption (ka), with interindividual variability on clearances and central volume of distribution.

Where [1] appears, read: im, 0.18 mg/kg, Group 1D: 3 days IM 0.18 mg/kg, children, n=14.
Setting [2] is: im, 0.18 mg/kg, Study 1 Adults IM (1A + 1B) 0.18 mg/kg, n=64.
Where [3] appears, read: im, 0.5 mg/kg, Group 2A: 3 days IM once daily 0.5 mg/kg, teenagers, n=8.
Setting [4] is: intramuscular, 0.18 mg/kg, children.
[5] abbreviates: iv, 0.14 mg/kg, Group 1C: 1 day IV 0.14 mg/kg, adults, n=30.

Read-outs that look alike come from different tables or passages of the source.

Take `Cc1c(CCO)sc[n+]1CCCCCCCCCCCC[n+]1csc(CCO)c1C` [SAR97276A]: the AUC(0-t) was determined as 479 ± 111 ng·h/mL under setting [1]; 674 ± 109 ng·h/mL under setting [2]; 1400 ± 270 ng·h/mL (im, 0.25 mg/kg, Group 2B: 3 days IM twice daily 0.25 mg/kg, teenagers, n=8, AUC0-12 at steady state multiplied by 2); 1470 ± 375 ng·h/mL under setting [3]; 480 ± 92 ng·h/mL under setting [5]. For the same compound, the maximum concentration (Cmax) (as a rule, the maximum level reached in the sampled fluid or tissue) under setting [1] stood at 332 ± 91 ng/mL; the Cmax under setting [2] turned out to be 355 ± 51 ng/mL; the Cmax (im, 0.25 mg/kg, Group 2B: 3 days IM twice daily 0.25 mg/kg, teenagers, n=8) is 477 ± 91 ng/mL; the highest concentration (Cmax) under setting [3] stood at 862 ± 45 ng/mL; the Cmax under setting [5] is 390 ± 55 ng/mL. The Vd amounted to 0.217 L/kg under setting [4] and 0.27 L/kg (adults). The clearance was 6.55 mL/min/kg under setting [4] and 4.58 mL/min/kg (adults). Where the note is “whatever the populations or the route of administration”, the “Inter-individual variability based on Cmax and AUC” value is reported as < 25%.
